Assay results from US20260224566A1, “Obicetrapib and Ezetimibe Combination Treatment and Fixed Dose Pharmaceutical Compositions” (NewAmsterdam Pharma B.V., priority 2023, published 2026).

Assays:
[1] = tested on: ApoE*3-Leiden.CETP transgenic mice; assay: Example 12: plasma lipids, VLDL clearance, LDL receptor, fecal and biliary sterols in ApoE*3-Leiden.CETP mice; assay type: in vivo, mouse
Text: Obicetrapib is a selective cholesteryl ester transfer protein (CETP) inhibitor currently in clinical development for the treatment of hypercholesterolemia and reduction of cardiovascular risk that strongly reduces Apolipoprotein B (ApoB) and low-density lipoprotein cholesterol (LDL-C) and concomitantly increases plasma high-density lipoprotein cholesterol (HDL-C). Ezetimibe reduces absorption of biliary and dietary cholesterol from the small intestine, thereby reducing LDL-C levels. The current study was carried out to elucidate the mechanism of action responsible for the observed decrease in non-HDL-C by obicetrapib monotherapy and in combination with ezetimibe in a translational mouse model for hyperlipidemia and atherosclerosis.
(§1) The experimental protocol is illustrated in FIG. 71, with time (t) measured in weeks. Female ApoE*3-Leiden.CETP transgenic mice were fed a Western diet with 0.05% w/w cholesterol (equivalent to daily human intake) with (i) no drug (control), or the same diet containing (ii) obicetrapib alone (2 mg/kg/day), (iii) ezetimibe alone (1 mg/kg/day) or (iv) the combination of obicetrapib and ezetimibe. In the experiment, the effects of the treatments on, amongst other things, plasma blood lipids and fecal bile acids and sterols were determined.

CETP = target: T1, CETP (Homo sapiens, UniProt P11597); assay: Example 12: CETP activity and mass in ApoE*3-Leiden.CETP mice; assay type: in vivo, mouse
T1 construct: from tissue; host or cells: female ApoE*3-Leiden.CETP transgenic mice dosed in vivo
T1 sequence (P11597 18-493): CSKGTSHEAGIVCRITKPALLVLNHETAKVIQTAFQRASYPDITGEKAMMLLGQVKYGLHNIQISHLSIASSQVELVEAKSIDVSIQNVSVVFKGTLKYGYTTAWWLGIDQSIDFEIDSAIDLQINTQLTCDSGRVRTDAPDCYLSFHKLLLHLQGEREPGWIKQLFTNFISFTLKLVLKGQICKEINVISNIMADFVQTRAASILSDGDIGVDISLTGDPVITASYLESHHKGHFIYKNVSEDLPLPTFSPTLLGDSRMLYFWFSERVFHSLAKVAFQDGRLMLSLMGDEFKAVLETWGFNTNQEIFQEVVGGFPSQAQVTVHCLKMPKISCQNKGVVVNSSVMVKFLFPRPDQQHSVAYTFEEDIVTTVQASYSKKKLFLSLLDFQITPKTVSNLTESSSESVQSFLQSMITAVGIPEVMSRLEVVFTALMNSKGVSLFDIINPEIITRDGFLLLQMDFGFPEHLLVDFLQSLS
Method: To further elucidate the effects of the combination treatment, further studies were carried out using a standard human CETP transgenic knock-in mouse. As can be inferred from the experimental results reported herein, Obicetrapib alone and the combination with ezetimibe reduce non-HDL-C levels by increased VLDL lipolysis, increased VLDL clearance and elevated LDL receptor levels accompanied by an enhanced fecal bile acid and neutral sterol excretion.
as §1

[2] = tested on: ApoE*3-Leiden.CETP transgenic mice; assay: Example 13: plasma cholesterol and atherosclerosis development in aortic root of ApoE*3-Leiden.CETP mice; assay type: in vivo, mouse
Method: The current study was carried out to evaluate the effect of obicetrapib monotherapy and a combination of obicetrapib+ezetimibe on atherosclerosis development in a translational mouse model for hyperlipidemia and atherosclerosis.
as §1, with “82,” for “71,”, “(on average 0.6” for “(1”, “ezetimibe.” for “ezetimibe. In the experiment, the effects of the treatments on, amongst other things, plasma blood lipids and fecal bile acids and sterols were determined.”

[3] = tested on: patients with mild dyslipidemia; conditions: cited from earlier work
Lp(a) = conditions: TA-8995-06, 12 weeks of treatment; cited from earlier work
[4] = obicetrapib 2 mg/kg/day, ezetimibe 1 mg/kg/day in Western diet
[5] = aortic root, 28 weeks of treatment
[6] = obicetrapib 2 mg/kg/day, ezetimibe on average 0.6 mg/kg/day in Western diet

With `CCOC(=O)N1c2ccc(C(F)(F)F)cc2[C@@H](N(Cc2cc(C(F)(F)F)cc(C(F)(F)F)c2)c2ncc(OCCCC(=O)O)cn2)C[C@H]1CC` [obicetrapib, {4-[(2-{[3,5-bis(trifluoromethyl)benzyl] [(2R,4S)-1-(ethoxycarbonyl)-2-ethyl-6-(trifluoromethyl)-1,2,3,4-tetrahydroquinolin-4-yl]amino}pyrimidin-5-yl)oxy]butanoic acid}] the triglycerides levels ([1]; FIG. 74) was “decreased”, the “liver uptake of VLDL like particles” value ([1]; FIG. 77) was “increased” and the “plasma pcsk-9 levels” value ([1]; FIG. 78) was “decreased”. For the same compound, the cholesterol balance ([1]; FIG. 81) was “decreased”, the “biliary bile acids and biliary bile acid flow” value ([1]; not shown) was “did not affect” and the “biliary phospholipids and biliary phospholipid flow” value ([1]; not shown) was “did not affect”. The “fecal bile acid excretion, change” value ([1]; obicetrapib 2 mg/kg/day in Western diet) was “+41%”, the “ApoA1 levels, increase” value [1, 4] was 98% and the “HDL-C, change” value [1, 4] was “+260%”. The “half-life of VLDL-like particles, change” value [1, 4] was −44%, the “hepatic LDL receptor expression, change” value [1, 4] was “+63%” and the “non-HDL-C levels, change” value [1, 4] was −61%. The “total plasma cholesterol levels, change” value [1, 4] was −42%, the cetp mass (CETP; data not shown) was “does not affect” and the “CETP activity, change” value (CETP; [4]) was −99%. For the same compound, the HDL-cholesterol ([2]; FIG. 84B) was “increases”, the “percentage of unaffected segments, increase” value [2, 5] was “+347%” and the “severe lesions (types IV-V), change” value [2, 5] was −82%. The “total atherosclerotic lesion size, change” value ([2]; aortic root, 28 weeks of treatment, versus control) was −90%, the “non-HDL-C levels, change” value [2, 6] was −53% and the “total plasma cholesterol levels, change” value [2, 6] was −31%. For the same compound, the lesion number ([2]; versus control animals, FIG. 90B) was “statistically significant reductions”, the HDL-C efflux capacity ([3]; TA-8995-03, 10 mg daily dose) was “significant increase” and the “additional reduction in LDL-C on top of atorvastatin 20 mg” value ([3]; TA-8995-03, obicetrapib 10 mg) was 50.3%. For the same compound, the “Lp(a) levels” value (Lp(a)) was “statistically significant reduction”.
